Patent US20240190889A1, “NEW CYCLOPENTA-THIENO-DIAZEPINE DERIVATIVES AS GABA A GAMMA1 POSITIVE ALLOSTERIC MODULATORS” (Hoffmann-La Roche Inc., priority 2021, published 2024)
Like-named read-outs stand apart in the source and are kept apart here.

Tests used:
[1] = biological target: human GABAA α5β2γ1 receptor (Homo sapiens (Human), UniProt P31644+Q8N1C3); assay: Radioligand binding assay, competition for [3H]RO7239181, γ1-containing GABAA subtypes; details: membranes from HEK293F cells, mean of two determinations
Method: Membrane Preparation and Binding Assay for γ1-containing GABAA Subtypes
The affinity of compounds at GABAA γ1 subunit-containing receptors was measured by competition for [^3H]RO7239181 (67.3 Ci/mmol: Roche) binding to membranes from HEK293F cells (ThermoFisher R79007) expressing human (transiently transfected) receptors of composition α5β2γ1, α2β2γ1, α1β2γ1. For better protein expression of the α2 subunit-containing receptors, the 28 amino acid long signal peptide (Metl to Ala28) of the human GABAA α2 subunit was substituted by the 31 amino acid long signal peptide (Met1 to Ser31) of human GABAA α5 subunit.
Harvested pellets from HEK293F cells expressing the different GABAA receptor subtypes were resuspended in Mannitol Buffer pH 7.2-7.4 (Mannitol 0.29 M, Tricthylamine 10 mM. Acetic acid 10 mM. EDTA 1 mM plus protease inhibitors (20 tablets Complete. Roche Diagnostics Cat. No. 05 056 489 001 per liter)), washed two times and then resuspended at 1:10 to 1:15 dilution in the same buffer. Cell disruption was performed by stirring the suspension in a Parr vessel #4637 at 435 psi for 15 minutes, and then the suspensions were centrifuged at 1000×g for 15 minutes at 4° C. (Beckman Avanti J-HC: rotor JS-4.2). The supernatant (S1) was transferred in a 21 Schott flask and the pellet (P1) was resuspended with Mannitol Buffer up to 175 ml. The resuspended pellet was transferred into a 250 ml Corning centrifugal beaker and centrifuged at 1500 ×g for 10 minutes at 4° C. (Beckman Avanti J-HC: rotor JS-4.2). The supernatant (S1) was then transferred in the 21 Schott flask and the pellet was discarded. The supernatants (S1) were centrifuged in 500ml Beckman polypropylene centrifugal beaker at 15 000×g for 30 minutes at 4° C. (Beckman Avanti J-20 XP; rotor JLA-10.500). The pellet (P2) was resuspended with Mannitol Buffer 1:1 and frozen at −80° C. The supernatant (S2) was centrifuged in 100 ml Beckman polypropylene centrifugal tubes at 48000×g for 50 minutes at 4 °C (Beckman Avanti J-20 XP: rotor JA-18). The supernatant (S3) was discarded and the pellet (P3) was resuspended with 1:1 Mannitol Buffer. The P2 and P3 protein concentration was determined with the BIORAD Standard assay method with bovine serum albumin as standard and measured on the NANO-Drop 1000. The membrane suspension was aliquots (500μl per tube) and stored at −80° C. until required.
Membrane homogenates were resuspended and polytronised (Polytron PT1200E Kinematica AG) in Potassium Phosphate 10 mM, KCl 100 mM binding buffer at pH 7.4 to a final assay concentration determined with a previous experiment.
Radioligand binding assays were carried out in a volume of 200 μL (96-well plates) which contained 100 μL of cell membranes. [^3H]RO7239181 at a concentration of 1.5 nM (α5β2γ1) or 20-30 nM (α1β2γ1, α2β2γ1) and the test compound in the range of [0.3-10000]33 10^−9 M. Nonspecific binding was defined by […] (α5β2γ1) and […] RO7239181 and typically represented less than 5% (α5β2γ1) and less than 20% (α1β2γ1, α2β2γ1) of the total binding. Assays were incubated to equilibrium for 1 hour at 4° C. and then, membranes were filtered onto unifilter (96-well white microplate with bonded GF/C filters preincubated 20-50 minutes in 0.3% Polyethylenimine) with a Filtermate 196 harvester (Packard BioScience) and washed 4 times with cold Potassium Phosphate 10 mM pH 7.4. KCl 100 mM binding buffer. After anhydrousing, filter-retained radioactivity was detected by liquid scintillation counting. Ki values were calculated using Excel-Fit (Microsoft) and are the means of two determinations.
Representative test results, obtained by the above described assay measuring binding affinity to HEK293 cells expressing human (h) receptors, are shown in the Table 1.

[2] = biological target: human GABAA α1β3γ2 receptor (Homo sapiens (Human), UniProt P14867+P18507); assay: Radioligand binding assay, competition for [3H]Flumazenil, γ2-containing GABAA subtypes; details: for γ2/γ1 Selectivity Ratio: Ki α1β3γ2 (nM)/Ki α2β2γ1 (nM); for LogSel: Log[Ki α1β3γ2 (nM)/Ki α2β2γ1 (nM)]
Method: Membrane Preparation and Binding Assay for γ2-containing GABAA Subtypes
The affinity of compounds at GABAA γ2 subunit-containing receptors was measured by competition for [^3H]Flumazenil (81.1 Ci/mmol; Roche) binding to HEK293F cells expressing human (transiently transfected) receptors of composition α1β3γ2.
Harvested pellets from HEK293F cells expressing the different GABAA γ2 receptor subtypes were resuspended in Mannitol Buffer pH 7,2-7,4 and processed as described above for the cells expressing the GABAA γ1 subunit-containing receptors.
Assays were incubated to equilibrium for 1 hour at 4° C, and harvested onto GF/C uni-filters (Packard) by filtration using a Packard harvester and washing with ice-cold wash buffer (50 mM Tris; pH 7.5). After anhydrousing, filter-retained radioactivity was detected by liquid scintillation counting. Ki values were calculated using Excel-Fit (Microsoft) and are the means of two determinations.

Row | Compound | Ki [1] [nM] | Ki [2] [nM] | γ2/γ1 Selectivity Ratio [2] | LogSel [2] | Ki ([2]; HEK293F cell membranes, [3H]Flumazenil 1 nM, mean of two determinations, read-out: Ki h-GABAA α1β3γ2) [nM]
1 | C[C@@H]1N=C(c2c(F)cccc2Cl)c2c(sc3c2C[C@@H](C(F)F)C3)-n2c(-c3cccnn3)nnc21 [Example 12, (7S,13R)-9-(2-chloro-6-fluoro-phenyl)-13-(difluoromethyl)-7-methyl-3-pyridazin-3-yl-16-thia-2,4,5,8-tetrazatetracyclo [8.6.0.02,6.011,15]hexadeca-1(10),3,5,8,11(15)-pentaene] | 3.7 | 2360 | 176.0 | 2.25 | 
2 | Cc1nc2n(n1)-c1sc3c(c1C(c1c(F)cccc1F)=N[C@H]2C)C[C@H](C(F)F)C3 [Example 17, (7S,13S)-13-(difluoromethyl)-9-(2,6-difluorophenyl)-4,7-dimethyl-16-thia-2,3,5,8-tetrazatetracyclo [8.6.0.02,6.011,15]hexadeca-1(10),3,5,8,11(15)-pentaene] | 31.6 | 6640 | 114.8 | 2.06 | 
3 | Fc1cccc(F)c1C1=NCc2nnc(C3CC3)n2-c2sc3c(c21)C[C@@H](C(F)F)C3 [Example 7, (13R)-3-cyclopropyl-13-(difluoromethyl)-9-(2,6-difluorophenyl)-16-thia-2,4,5,8-tetrazatetracyclo [8.6.0.02,6.011,15]hexadeca-1(10),3,5,8,11(15)-pentaene] | 2.1 | 304 | 47.3 | 1.67 | 
4 | Cc1nnc2n1-c1sc3c(c1C(c1c(F)cccc1F)=NC2)C[C@@H](C)C3 [Example 14, (13R)-9-(2,6-difluorophenyl)-3,13-dimethyl-16-thia-2,4,5,8-tetrazatetracyclo [8.6.0.02,6.011,15]hexadeca-1(10),3,5,8,11(15)-pentaene] | 1.6 | 101 | 36.2 | 1.56 | 
5 | Cc1nnc2n1-c1sc3c(c1C(c1c(F)cccc1Cl)=NC2)C[C@@H](C(F)F)C3 [Example 4, (13R)-9-(2-chloro-6-fluoro-phenyl)-13-(difluoromethyl)-3-methyl-16-thia-2,4,5,8-tetrazatetracyclo [8.6.0.02,6.011,15]hexadeca-1(10),3,5,8,11(15)-pentaene] | 1.2 | 343 | 74.8 | 1.87 | 
6 | Cc1nnc2n1-c1sc3c(c1C(c1c(F)cccc1F)=N[C@H]2C)C[C@@H](C)C3 [Example 15, (7S,13R)-9-(2,6-difluorophenyl)-3,7,13-trimethyl-16-thia-2,4,5,8-tetrazatetracyclo [8.6.0.02,6.011,15]hexadeca-1(10),3,5,8,11(15)-pentaene] | 1.4 | 101 | 16.1 | 1.21 | 
7 | C[C@@H]1N=C(c2c(F)cccc2F)c2c(sc3c2C[C@@H](C(F)F)C3)-n2nc(C(=O)N3CCS(=O)(=O)CC3)nc21 [Example 19, [(7S,13R)-13-(difluoromethyl)-9-(2,6-difluorophenyl)-7-methyl-16-thia-2,3,5,8-tetrazatetracyclo [8.6.0.02,6.011,15]hexadeca-1(10),3,5,8,11(15)-pentaen-4-yl]-(1,1-dioxo-1,4-thiazinan-4-yl)methanone] | 4.6 |  | 162.3 | 2.21 | 873
